In patent US9745324B2, “Iminothiadiazepane dioxide compounds as BACE inhibitors, compositions, and their use” (Merck Sharp & Dohme Corp., priority 2013, dated 2017):

What was measured:
[1] = target: soluble human BACE1 catalytic domain (Homo sapiens (Human), UniProt P56817); assay: BACE1 HTRF FRET Assay; assay type: biochemical; conditions: Ki calculated from IC50 using the Cheng-Prusoff equation; QSY7-APPswe-Eu substrate, pH 5.0
Description: Reagents: Na^+-Acetate pH 5.0; 1% Brij-35; Glycerol; Dimethyl Sulfoxide (DMSO); Recombinant human soluble BACE1 catalytic domain (>95% pure); APP Swedish mutant peptide substrate (QSY7-APP^swe-Eu): QSY7-[…]-Europium-amide (SEQ ID 1).
A homogeneous time-resolved FRET assay can be used to determine IC50 values for inhibitors of the soluble human BACE1 catalytic domain. This assay monitors the increase of 620 nm fluorescence that resulted from BACE1 cleavage of an APPswedish APP^swe mutant peptide FRET substrate (QSY7-[…]-Europium-amide (SEQ ID 1)). This substrate contains an N-terminal QSY7 moiety that serves as a quencher of the C-terminal Europium fluorophore (620 nm Em). […] Inhibition of BACE1 cleavage of the QSY7-APP^swe-Eu substrate by inhibitors is manifested as a suppression of 620 nm fluorescence.
Varying concentrations of inhibitors at 3× the final desired concentration in a volume of 10 ul are preincubated with purified human BACE1 catalytic domain (3 nM in 10 μl) for 30 minutes at 30° C. in reaction buffer containing 20 mM Na-Acetate pH 5.0, 10% glycerol, 0.1% Brij-35 and 7.5% DSMO. Reactions are initiated by addition of 10 μl of 600 nM QSY7-APP^swe-Eu substrate (200 nM final) to give a final reaction volume of 30 μl in a 384 well Nunc HTRF plate. The reactions are incubated at 30° C. for 1.5 hours. The 620 nm fluorescence is then read on a Rubystar HTRF plate reader (BMG Labtechnologies) using a 50 millisecond delay followed by a 400 millisecond acquisition time window. Inhibitor IC50 values are derived from non-linear regression analysis of concentration response curves.

[2] = target: purified human autoBACE-2 (Homo sapiens, UniProt Q9Y5Z0); assay: BACE-2 Assay (BACE-HTRF assay); assay type: biochemical; conditions: Ki calculated from IC50 using the Cheng-Prusoff equation; QSY7-EISEVNLDAEFC-Eu-amide substrate, pH 5.0; read-out: BACE2 Ki
Sequence of purified human autoBACE-2 (Q9Y5Z0 63-518 limits assumed): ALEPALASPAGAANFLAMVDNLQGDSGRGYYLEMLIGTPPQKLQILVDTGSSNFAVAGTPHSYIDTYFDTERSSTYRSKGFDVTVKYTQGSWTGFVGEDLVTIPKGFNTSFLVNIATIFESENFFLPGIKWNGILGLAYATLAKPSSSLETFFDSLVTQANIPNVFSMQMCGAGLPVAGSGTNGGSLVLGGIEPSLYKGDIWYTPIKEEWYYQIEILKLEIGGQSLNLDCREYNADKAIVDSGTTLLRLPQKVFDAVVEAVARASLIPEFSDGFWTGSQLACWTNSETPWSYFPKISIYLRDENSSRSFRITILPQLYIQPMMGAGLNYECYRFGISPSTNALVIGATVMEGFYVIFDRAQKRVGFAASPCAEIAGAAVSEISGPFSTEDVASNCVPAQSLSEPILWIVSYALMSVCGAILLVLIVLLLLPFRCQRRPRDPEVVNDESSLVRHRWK
Experimental: DMSO is present at 5% final concentration in the assay. Following laser excitation of sample wells at 320 nm, the fluorescence signal at 620 nm is collected for 400 ms following a 50 μs delay on a RUBYstar HTRF plate reader (BMG Labtechnologies). Raw RFU data is normalized to maximum (1.0 nM BACE/DMSO) and minimum (no enzyme/DMSO) RFU values. […] The Ki values are calculated from the IC50 using the Cheng-Prusoff equation.

Sequence of soluble human BACE1 catalytic domain (P56817 75-416): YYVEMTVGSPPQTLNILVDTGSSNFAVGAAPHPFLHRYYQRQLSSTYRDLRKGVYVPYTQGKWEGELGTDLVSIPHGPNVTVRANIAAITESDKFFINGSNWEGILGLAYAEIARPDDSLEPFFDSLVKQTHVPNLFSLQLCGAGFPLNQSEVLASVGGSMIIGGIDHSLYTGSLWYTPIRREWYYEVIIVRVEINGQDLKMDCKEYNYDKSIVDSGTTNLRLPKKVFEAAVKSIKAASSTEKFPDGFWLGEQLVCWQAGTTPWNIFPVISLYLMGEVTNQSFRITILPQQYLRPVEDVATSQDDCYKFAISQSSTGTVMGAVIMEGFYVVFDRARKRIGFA

Compound	Ki [1]	Ki [2]
CN1C[C@@](C)(c2cc(NC(=O)c3cnc(OCC(F)(F)F)cn3)ccc2F)NC(=N)C(C)(C)S1(=O)=O [Example 12, N-{4-fluoro-3-[(4R)-6-imino-2,4,7,7-tetramethyl-1,1-dioxido-1,2,5-thiadiazepan-4-yl]phenyl}-5-(2,2,2-trifluoroethoxy)pyrazine-2-carboxamide]	17 nM	171 nM
CN1C[C@@](C)(c2cc(NC(=O)c3cnccn3)ccc2F)NC(=N)C(C)(C)S1(=O)=O [Example 13, N-{4-fluoro-3-[(4R)-6-imino-2,4,7,7-tetramethyl-1,1-dioxido-1,2,5-thiadiazepan-4-yl]phenyl}pyrazine-2-carboxamide]	263 nM	110 nM
CN1C[C@@](C)(c2cc(NC(=O)c3cnsn3)ccc2F)NC(=N)C(C)(C)S1(=O)=O [Example 16, N-{4-fluoro-3-[(4R)-6-imino-2,4,7,7-tetramethyl-1,1-dioxido-1,2,5-thiadiazepan-4-yl]phenyl}-1,2,5-thiadiazole-3-carboxamide]	64 nM	25 nM
CN1C[C@@](C)(c2cc(NC(=O)c3cn4ccc(C#N)cc4n3)ccc2F)NC(=N)C(C)(C)S1(=O)=O [Example 17, 7-cyano-N-{4-fluoro-3-[(4R)-6-imino-2,4,7,7-tetramethyl-1,1-dioxido-1,2,5-thiadiazepan-4-yl]phenyl}imidazo[1,2-a]pyridine-2-carboxamide]	5630 nM	7490 nM
Cc1cc(C(=O)Nc2ccc(F)c([C@]3(C)CN(C)S(=O)(=O)C(C)(C)C(=N)N3)c2)no1 [Example 19, N-{4-fluoro-3-[(4R)-6-imino-2,4,7,7-tetramethyl-1,1-dioxido-1,2,5-thiadiazepan-4-yl]phenyl}-5-methylisoxazole-3-carboxamide]	1360 nM	347 nM
Cc1cc(C(=O)Nc2ccc(F)c([C@]3(C)CN(C)S(=O)(=O)C(C)(C)C(=N)N3)c2)on1 [Example 22, N-{4-fluoro-3-[(4R)-6-imino-2,4,7,7-tetramethyl-1,1-dioxido-1,2,5-thiadiazepan-4-yl]phenyl}-3-methylisoxazole-5-carboxamide]	1690 nM	1020 nM
COCCC(=O)Nc1ccc(F)c([C@]2(C)CN(C)S(=O)(=O)C(C)(C)C(=N)N2)c1 [Example 24, N-{4-fluoro-3-[(4R)-6-imino-2,4,7,7-tetramethyl-1,1-dioxido-1,2,5-thiadiazepan-4-yl]phenyl}-3-methoxypropanamide]	> 9760 nM	4090 nM
COCC(=O)Nc1ccc(F)c([C@]2(C)CN(C)S(=O)(=O)C(C)(C)C(=N)N2)c1 [Example 25, N-{4-fluoro-3-[(4R)-6-imino-2,4,7,7-tetramethyl-1,1-dioxido-1,2,5-thiadiazepan-4-yl]phenyl}-2-methoxyacetamide]	756 nM	122 nM
CN1C[C@@](C)(c2cc(NC(=O)c3cn(C)nc3C(F)(F)F)ccc2F)NC(=N)C(C)(C)S1(=O)=O [Example 26, N-{4-fluoro-3-[(4R)-6-imino-2,4,7,7-tetramethyl-1,1-dioxido-1,2,5-thiadiazepan-4-yl]phenyl}-1-methyl-3-(trifluoromethyl)-1H-pyrazole-4-carboxamide]	8790 nM	6510 nM
CO[C@H](C)C(=O)Nc1ccc(F)c([C@]2(C)CN(C)S(=O)(=O)C(C)(C)C(=N)N2)c1 [Example 29, (2R)-N-{4-fluoro-3-[(4R)-6-imino-2,4,7,7-tetramethyl-1,1-dioxido-1,2,5-thiadiazepan-4-yl]phenyl}-2-methoxypropanamide]	4680 nM	798 nM
CN1C[C@@](C)(c2cc(NC(=O)C3CC3)ccc2F)NC(=N)C(C)(C)S1(=O)=O [Example 33, N-{4-fluoro-3-[(4R)-6-imino-2,4,7,7-tetramethyl-1,1-dioxido-1,2,5-thiadiazepan-4-yl]phenyl}cyclopropanecarboxamide]	4350 nM	1030 nM

Continued, values first:

Ki [1]	Ki [2]	Compound
52 nM	217 nM	CN1C[C@@](C)(c2cc(NC(=O)c3cnc(OCCF)cn3)ccc2F)NC(=N)C(C)(C)S1(=O)=O [Example 14, 5-(2-fluoroethoxy)-N-{4-fluoro-3-[(4R)-6-imino-2,4,7,7-tetramethyl-1,1-dioxido-1,2,5-thiadiazepan-4-y]phenyl}pyrazine-2-carboxamide]
153 nM	27 nM	Cc1nc(C(=O)Nc2ccc(F)c([C@]3(C)CN(C)S(=O)(=O)C(C)(C)C(=N)N3)c2)no1 [Example 15, N-{4-fluoro-3-[(4R)-6-imino-2,4,7,7-tetramethyl-1,1-dioxido-1,2,5-thiadiazepan-4-yl]phenyl}-5-methyl-1,2,4-oxadiazole-3-carboxamide]
271 nM	42 nM	CN1C[C@@](C)(c2cc(NC(=O)c3ccn(C)n3)ccc2F)NC(=N)C(C)(C)S1(=O)=O [Example 18, N-{4-fluoro-3-[(4R)-6-imino-2,4,7,7-tetramethyl-1,1-dioxido-1,2,5-thiadiazepan-4-yl]phenyl}-1-methyl-1H-pyrazole-3-carboxamide]
1140 nM	> 9540 nM	Cc1nc2ccc(C(=O)Nc3ccc(F)c([C@]4(C)CN(C)S(=O)(=O)C(C)(C)C(=N)N4)c3)cc2o1 [Example 20, N-{4-fluoro-3-[(4R)-6-imino-2,4,7,7-tetramethyl-1,1-dioxido-1,2,5-thiadiazepan-4-yl]phenyl}-2-methyl-1,3-benzoxazole-6-carboxamide]
228 nM	43 nM	CN1C[C@@](C)(c2cc(NC(=O)c3ccccn3)ccc2F)NC(=N)C(C)(C)S1(=O)=O [Example 21, N-{4-fluoro-3-[(4R)-6-imino-2,4,7,7-tetramethyl-1,1-dioxido-1,2,5-thiadiazepan-4-yl]phenyl}pyridine-2-carboxamide]
21 nM	6.4 nM	CN1C[C@@](C)(c2cc(NC(=O)c3ncc(Cl)cc3F)ccc2F)NC(=N)C(C)(C)S1(=O)=O [Example 23, 5-chloro-3-fluoro-N-{4-fluoro-3-[(4R)-6-imino-2,4,7,7-tetramethyl-1,1-dioxido-1,2,5-thiadiazepan-4-yl]phenyl}pyridine-2-carboxamide]
285 nM	46 nM	CN1C[C@@](C)(c2cc(NC(=O)c3cn4ccsc4n3)ccc2F)NC(=N)C(C)(C)S1(=O)=O [Example 27, N-{4-fluoro-3-[(4R)-6-imino-2,4,7,7-tetramethyl-1,1-dioxido-1,2,5-thiadiazepan-4-yl]phenyl}imidazo[2,1-b][1,3]thiazole-6-carboxamide]
1200 nM	354 nM	CN1C[C@@](C)(c2cc(NC(=O)C(F)F)ccc2F)NC(=N)C(C)(C)S1(=O)=O [Example 28, 2,2-difluoro-N-{4-fluoro-3-[(4R)-6-imino-2,4,7,7-tetramethyl-1,1-dioxido-1,2,5-thiadiazepan-4-yl]phenyl}acetamide]
> 9760 nM	2190 nM	CN1C[C@@](C)(c2cc(NC(=O)CC3CC3)ccc2F)NC(=N)C(C)(C)S1(=O)=O [Example 30, 2-cyclopropyl-N-{4-fluoro-3-[(4R)-6-imino-2,4,7,7-tetramethyl-1,1-dioxido-1,2,5-thiadiazepan-4-yl]phenyl}acetamide]
189 nM	202 nM	CN1C[C@@](C)(c2cc(NC(=O)c3ncc(C(F)(F)F)cn3)ccc2F)NC(=N)C(C)(C)S1(=O)=O [Example 31, N-{4-fluoro-3-[(4R)-6-imino-2,4,7,7-tetramethyl-1,1-dioxido-1,2,5-thiadiazepan-4-yl]phenyl}-5-(trifluoromethyl)pyrimidine-2-carboxamide]
165 nM	54 nM	Cc1nc(C(=O)Nc2ccc(F)c([C@]3(C)CN(C)S(=O)(=O)C(C)(C)C(=N)N3)c2)c(C)o1 [Example 32, N-{4-fluoro-3-[(4R)-6-imino-2,4,7,7-tetramethyl-1,1-dioxido-1,2,5-thiadiazepan-4-yl]phenyl}-2,5-dimethyl-1,3-oxazole-4-carboxamide]
3060 nM	1120 nM	CO[C@@H](C)C(=O)Nc1ccc(F)c([C@]2(C)CN(C)S(=O)(=O)C(C)(C)C(=N)N2)c1 [Example 34, (2S)-N-{4-fluoro-3-[(4R)-6-imino-2,4,7,7-tetramethyl-1,1-dioxido-1,2,5-thiadiazepan-4-yl]phenyl}-2-methoxypropanamide]
5930 nM	917 nM	CC(=O)Nc1ccc(F)c([C@]2(C)CN(C)S(=O)(=O)C(C)(C)C(=N)N2)c1 [Example 35, N-{4-fluoro-3-[(4R)-6-imino-2,4,7,7-tetramethyl-1,1-dioxido-1,2,5-thiadiazepan-4-yl]phenyl}acetamide]
